The results in this text go back to patent publication US6565859B1, “Galenical formulations” (Novartis AG, priority 1993, dated 2003).

The nature of one data set: in vivo. The note with it: male, Wistar, rat, whole blood, po, 10 mg.
Data set [1] is described as follows: Pharmacokinetics in rats after gastric intubation, blood levels by ELISA with rapamycin specific antibodies. The note with it: Example 3; rapamycin given in formulations A and B, 10 mg per rat, oral.
Protocol: (§1) Formulation A is an emulsion preconcentrate and formulation B is a microemulsion preconcentrate. 6 male Wistar rats of mean body weight of 300 g are used per form. One day before treatment, food is withdrawn from the rats but the rats are permitted free access to water. The rats are then anesthetized by intraperitoneal injection of 2×1 ml 20% urethane and a permanent catheter is inserted into the right vena jugularis to permit blood sampling. 500 ml/animal of the formulation is administered by gastric intubation 20 hours after the surgery. A total dose of 10 mg of drug per animal is administered. Blood samples of 0.7 ml are taken from the jugular catheter of each animal 15 minutes before drug administration and then 0.17, 0.5, 1, 1.5, 2, 3, 5 and 8 hours after drug administration. The samples are kept in heparinized tubes and are analysed by means of ELISA using microtitre plates coated with rapamycin specific antibodies. The animals are killed immediately after taking the last blood sample.

Protocol for in vivo: as §1

Compound `CO[C@H]1C[C@@H]2CC[C@@H](C)[C@@](O)(O2)C(=O)C(=O)N2CCCC[C@H]2C(=O)O[C@H]([C@H](C)C[C@@H]2CC[C@@H](O)[C@H](OC)C2)CC(=O)[C@H](C)/C=C(\C)[C@@H](O)[C@@H](OC)C(=O)[C@H](C)C[C@H](C)/C=C/C=C/C=C/1C` [rapamycin, Rapamycin] showed a Cmax in the data set “in vivo” of 2670 to 3400 ng/mL. In data set [1], the “absorption (result in words)” value is “well absorbed”.
